Experimental data reported in patent publication US20260226071A1, “2, 4-DIANILINOPYRIMIDINE-BASED AURORA-A KINASE SELECTIVE DEGRADATION INDUCING COMPOUNDS” (UPPTHERA, INC., priority 2023, published 2026).

Columns and labels:
[1] = system: NCI-H446 cell line; assay: Cell viability assay for NCI-H446 cell line; format: cell-based; conditions: Homo sapiens, NCI-H446, 120 h; H446 cells, 5 days culture, EZ-Cytox; read-out: IC50 value (Level)
Text: The NCI-H446 (hereafter H446) cell lines were provided from American Type Culture Collection (ATCC). For cell culture, RPMI medium 1640 (Gibco, Cat. No. 22400-089; Lot. No. 2522717), FBS (Gibco, Cat. No. 16000-044; Lot. No. 2716756P), Penicillin/Streptomycin (PS) (Gibco, Cat. No. 15140-122; Lot. No. 2585636), 75T cell culture flask (SPL, Cat. No. 70075), 96 well cell culture plate (SPL, Cat. No. 30096), PBS pH 7.4 (Gibco, Cat. No. 10010-023; Lot. No. 2561466), TrypLE™ Express (Gibco, Cat. No. 12605-010; Lot. No. 2492811), counting chamber (hematocytometer) (Hirschmann, Cat. No. 8100204) and 0.4% Trypan Blue solution (DYNEBIO, Cat. No. CBT3710; Lot. No. 20231017) were used. Cells were cultured in RPMI 1640 medium supplemented with 10% FBS and 1% PS and incubated at 37° C., 5% CO2 condition in CO2 incubator (ThermoScientific, Cat. No. 4111).
For experiment, the present compounds were fully dissolved in DMSO (Sigma-Aldrich Cat. No. D2438, Lot. No. RNBL7287.
In each well of 96-well cell culture plate, […] cells of H446 cell lines were seeded in 150 μl of total medium volume. After 24 hours of cell seeding, the present compounds were treated.
The present compounds were each diluted 3-folds from the highest concentration of 1000 nM to the lowest concentration of 0.15 nM. The compound was added to each well to make the total volume of […] and the cells were cultured for 5 days in CO2 incubator (Thermo Fisher Science, Cat. No. 4111).
Thereafter, 20 μl of EZ-Cytox (DOGEN, Cat. NO. EZ-3000, Lot. No. DLS2308) was added to each well and the cells were cultured for 4 hours at the same condition in CO2 incubator. After culture, the absorbance of the sample was measured by setting the wavelength of a plate reader (BMG Labtech, CLARIOstar Plus) to […]. The samples were shaked for 2 minutes in the plate reader before measurement.

[2] = biological target: T1, Aurora kinase A (AURKA) (Homo sapiens, UniProt O14965); assay: Luciferase assay for AURKA in HeLa LgBit (AURKA-HiBit KI) cell line; format: cell-based; conditions: HeLa LgBit (AURKA-HiBit KI) cells, measured after 12 hours
T1 construct: endogenous in cells; host or cells: HeLa LgBit (AURKA-HiBit KI), CRISPR/Cas9 knock-in at the endogenous AURKA locus
T1 sequence (O14965 1-403): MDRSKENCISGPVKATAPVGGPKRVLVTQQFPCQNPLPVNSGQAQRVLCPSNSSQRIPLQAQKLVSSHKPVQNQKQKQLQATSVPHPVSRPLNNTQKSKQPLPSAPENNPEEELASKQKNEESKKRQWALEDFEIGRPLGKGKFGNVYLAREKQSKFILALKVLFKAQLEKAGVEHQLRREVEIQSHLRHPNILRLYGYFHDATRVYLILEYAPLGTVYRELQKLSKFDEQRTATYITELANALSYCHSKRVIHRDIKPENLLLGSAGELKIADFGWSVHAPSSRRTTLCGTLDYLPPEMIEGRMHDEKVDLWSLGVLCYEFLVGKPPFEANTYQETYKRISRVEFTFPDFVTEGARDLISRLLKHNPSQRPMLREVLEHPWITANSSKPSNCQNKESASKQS
Procedure, shortened: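 HeLa cells stably expressing LgBit, with HiBit knocked in at the C-terminus of endogenous AURKA; 3×10^4 cells seeded, 18 h, then Endurazine substrate 2 h. Compounds tested at 10 nM or 100 nM; luminescence read at 470-480 nm after 12 h as real-time read-out.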

| Structure (SMILES) | IC50 [1] [nM] | luminescence value (Level) ([2]; 10 nM compound) | luminescence value (Level) ([2]; 100 nM compound) |
| --- | --- | --- | --- |
| CN(CC1CCN(c2ccc(C3CCC(=O)NC3=O)cc2)CC1)C1CCC(NC(=O)c2ccc(Nc3ncc(F)c(Nc4ccc(C(=O)Nc5ccccc5Cl)cc4)n3)cc2)CC1 (stereo not drawn) [Compound 4, N-(2-chlorophenyl)-4-((2-((4-((4-(((1-(4-(2,6-dioxopiperidin-3-yl)phenyl)piperidin-4-yl)methyl)(methyl)amino)cyclohexyl)carbamoyl)phenyl)amino)-5-fluoropyrimidin-4-yl)amino)benzamide] | 100 to 150 | C (C is 0.5 to 0.7) | A (A is <0.2) |
| O=C1CCC(c2ccc(N3CCN(CCC4CCN(NC(=O)c5ccc(Nc6ncc(F)c(Nc7ccc(C(=O)Nc8ccccc8Cl)cc7)n6)cc5)CC4)CC3)cc2)C(=O)N1 (stereo not drawn) [Compound 7, N-(2-chlorophenyl)-4-((2-((4-((4-(2-(4-(4-(2,6-dioxopiperidin-3-yl)phenyl)piperazin-1-yl)ethyl)piperidin-1-yl)carbamoyl)phenyl)amino)-5-fluoropyrimidin-4-yl)amino)benzamide] | < 50 | A (A is <0.3) | A (A is <0.2) |
| O=C1CCC(c2ccc(N3CCN(CCC4CCN(NC(=O)c5ccc(Nc6ncc(F)c(Oc7ccc(C(=O)Nc8ccccc8Cl)cc7)n6)cc5)CC4)CC3)cc2)C(=O)N1 (stereo not drawn) [Compound 101, N-(2-chlorophenyl)-4-((2-((4-((4-(2-(4-(4-(2,6-dioxopiperidin-3-yl)phenyl)piperazin-1-yl)ethyl)piperidin-1-yl)carbamoyl)phenyl)amino)-5-fluoropyrimidin-4-yl)oxy) benzamide] | > 200 | B (B is 0.3 to 0.5) | A (A is <0.2) |
| O=C1CCC(c2ccc(N3CCN(C(=O)CN4CCC(NC(=O)c5ccc(Nc6ncc(F)c(Nc7ccc(C(=O)Nc8ccccc8Cl)cc7)n6)cc5)CC4)CC3)cc2)C(=O)N1 (stereo not drawn) [Compound 51, N-(2-chlorophenyl)-4-((2-((4-((1-(2-(4-(4-(2,6-dioxopiperidin-3-yl)phenyl)piperazin-1-yl)-2-oxoethyl)piperidin-4-yl)carbamoyl)phenyl)amino)-5-fluoropyrimidin-4-yl)amino)benzamide] | < 50 | A (A is <0.3) | A (A is <0.2) |
| O=C1CCC(Nc2ccc(N3CCN(CCC4CCN(NC(=O)c5ccc(Nc6ncc(F)c(Nc7ccc(C(=O)Nc8ccccc8Cl)cc7)n6)cc5)CC4)CC3)cc2)C(=O)N1 (stereo not drawn) [Compound 43, N-(2-chlorophenyl)-4-((2-((4-((4-(2-(4-(4-((2,6-dioxopiperidin-3-yl)amino)phenyl)piperazin-1-yl)ethyl)piperidin-1-yl)carbamoyl)phenyl)amino)-5-fluoropyrimidin-4-yl)amino)benzamide] | < 50 | A (A is <0.3) | A (A is <0.2) |
| O=C1CC[C@@H](Nc2ccc(N3CCN(CCC4CCN(NC(=O)c5ccc(Nc6ncc(F)c(Nc7ccc(C(=O)Nc8ccccc8Cl)cc7)n6)cc5)CC4)CC3)cc2F)C(=O)N1 [Compound 111, (R)—N-(2-chlorophenyl)-4-((2-((4-((4-(2-(4-(4-((2,6-dioxopiperidin-3-yl)amino)-3-fluorophenyl)piperazin-1-yl)ethyl)piperidin-1-yl)carbamoyl)phenyl)amino)-5-fluoropyrimidin-4-yl)amino)benzamide] | < 50 | A (A is <0.3) | A (A is <0.2) |
| O=C1CCC(c2ccc(N3CCC(CN4CCC(NC(=O)c5ccc(Nc6ncc(F)c(Nc7ccc(C(=O)Nc8ccccc8Cl)cc7)n6)cc5)CC4)CC3)cc2)C(=O)N1 (stereo not drawn) [Compound 50, N-(2-chlorophenyl)-4-[[2-[4-[[1-[[1-[4-(2,6-dioxo-3-piperidyl)phenyl]-4-piperidyl]methyl]-4-piperidyl]carbamoyl]anilino]-5-fluoro-pyrimidin-4-yl]amino]benzamide] | 50 to 100 | B (B is 0.3 to 0.5) | A (A is <0.2) |
| O=C1CCC(c2ccc(N3CCN(CCC4CCN(C(=O)Nc5ccc(Nc6ncc(F)c(Nc7ccc(C(=O)Nc8ccccc8Cl)cc7)n6)cc5)CC4)CC3)cc2)C(=O)N1 (stereo not drawn) [Compound 53, N-(4-((4-((4-((2-chlorophenyl)carbamoyl)phenyl)amino)-5-fluoropyrimidin-2-yl)amino)phenyl)-4-(2-(4-(4-(2,6-dioxopiperidin-3-yl)phenyl)piperazin-1-yl)ethyl)piperidine-1-carboxamide] | < 50 | B (B is 0.3 to 0.5) | A (A is <0.2) |
| O=C1CCC(c2ccc(N3CCN(CC(=O)N4CCC(NC(=O)c5ccc(Nc6ncc(F)c(Nc7ccc(C(=O)Nc8ccccc8Cl)cc7)n6)cc5)CC4)CC3)cc2)C(=O)N1 (stereo not drawn) [Compound 5, N-(2-chlorophenyl)-4-((2-((4-((1-(2-(4-(4-(2,6-dioxopiperidin-3-yl)phenyl)piperazin-1-yl)acetyl)piperidin-4-yl)carbamoyl)phenyl)amino)-5-fluoropyrimidin-4-yl)amino)benzamide] | < 50 | B (B is 0.3 to 0.5) | A (A is <0.2) |
| CN(c1ccc(N2CCC(CN3CCN(C(=O)Cc4ccc(Nc5ncc(F)c(Nc6ccc(C(=O)Nc7ccccc7Cl)cc6)n5)cc4)CC3)CC2)cc1)C1CCC(=O)NC1=O (stereo not drawn) [Compound 44, N-(2-chlorophenyl)-4-((2-((4-(2-(4-((1-(4-((2,6-dioxopiperidin-3-yl)(methyl)amino)phenyl)piperidin-4-yl)methyl)piperazin-1-yl)-2-oxoethyl)phenyl)amino)-5-fluoropyrimidin-4-yl)amino)benzamide] | 100 to 150 | B (B is 0.3 to 0.5) | A (A is <0.2) |
| O=C1CCC(c2ccc(N3CCN(CCC4CCN(NC(=O)c5ccc(Nc6ncc(F)c(Nc7ccc(NC(=O)c8ccccc8Cl)cc7)n6)cc5)CC4)CC3)cc2)C(=O)N1 (stereo not drawn) [Compound 93, 2-chloro-N-(4-((2-((4-((4-(2-(4-(4-(2,6-dioxopiperidin-3-yl)phenyl)piperazin-1-yl)ethyl)piperidin-1-yl)carbamoyl)phenyl)amino)-5-fluoropyrimidin-4-yl)amino)phenyl)benzamide] | < 50 | A (A is <0.3) | A (A is <0.2) |
| O=C1CC[C@H](Nc2ccc(N3CCN(CCC4CCN(NC(=O)c5ccc(Nc6ncc(F)c(Nc7ccc(C(=O)Nc8ccccc8Cl)cc7)n6)cc5)CC4)CC3)cc2F)C(=O)N1 [Compound 95, (S)—N-(2-chlorophenyl)-4-((2-((4-((4-(2-(4-(4-((2,6-dioxopiperidin-3-yl)amino)-3-fluorophenyl)piperazin-1-yl)ethyl)piperidin-1-yl)carbamoyl)phenyl)amino)-5-fluoropyrimidin-4-yl)amino)benzamide] | 50 to 100 | B (B is 0.3 to 0.5) | A (A is <0.2) |
| O=C1CCC(c2ccc(N3CCN(CCN4CCC(NC(=O)c5ccc(Nc6ncc(F)c(Nc7ccc(C(=O)Nc8ccccc8Cl)cc7)n6)cc5)CC4)CC3)cc2)C(=O)N1 (stereo not drawn) [Compound 18, N-(2-chlorophenyl)-4-((2-((4-((1-(2-(4-(4-(2,6-dioxopiperidin-3-yl)phenyl)piperazin-1-yl)ethyl)piperidin-4-yl)carbamoyl)phenyl)amino)-5-fluoropyrimidin-4-yl)amino) benzamide] | < 50 | A (A is <0.3) | A (A is <0.2) |
